Measured values: patent US9034914B2, “Pharmaceutical composition comprising rotigotine salts (acid or Na), especially for iontophoresis” (UCB Pharma GmbH, priority 2009, dated 2015)
Structures can show the parent of a compound that is named as a salt. Where two headings read alike, the source gives them in different places. Marks after values point to notes of the source that are not given here. Blank lines part the entries; values can stand above or below the molecule they belong to.

Tests used:
[1] = cited from earlier work; for Solubility: adapted from Nugroho et al.
[2] = 20 cm^2 patch containing 10 mg rotigotine hydrochloride, TTS of WO 94/07468; cited from earlier work
[3] = pH 5; cited from earlier work
[4] = assay type: in vitro ADME, human; details: for steady state flux ± s.d., iontophoresis stage / Mean steady state flux ± sd: 9 h
Protocol: The preparation of human stratum corneum (HSC) was performed according to the method described previously (Nugroho et al., (Nugroho et al., J. Control Release (2005) 103, 393-403) which is incorporated herein by reference. Briefly, within 24 hours after surgical removal of the human skin residual subcutaneous fat was removed. Dermatomed human skin (DHS) was obtained by dermatoming the skin to a thickness of about 300 μm. In order to obtain HSC, DHS was incubated with the dermal side on Whatman paper soaked in a solution of 0.1% trypsin in 150 mM phosphate buffered saline (PBS) pH 7.4 (NaCl: 8 g·L^−1, Na2HPO4: 2.86 g·L^−1, KH2PO4: 0.2 g·L^−1, KCl: 0.19 g·L^−1) overnight at 4° C. and subsequently for 1 hour at 37° C. after which HSC was peeled off from the underlying viable epidermis and dermis. HSC was subsequently washed in a 0.1% trypsin inhibitor solution in Millipore water and several times in water and stored in a desiccator in a N2 environment.
The in vitro transport studies were done by using a 9-channel computer controlled power supply in order to provide a constant direct current (Electronics Department, Gorlaeus Laboratories, Leiden University, The Netherlands) during iontophoresis. The system was equipped with differential input channels per current source enabling on-line measurement of the electric resistance across HSC in each diffusion cell. Ag/AgCl was used as driver electrode pair. All transport experiments were carried out, using a three chamber continuous flow through cell as described elsewhere (Nugroho et al., J. Control Release (2005) 103, 393-403). The donor formulation, buffered with a 10 mM citric buffer, was applied at the anodal side. The cathodal chamber was filled with PBS pH 7.4. The acceptor phase, maintained at 32° C., was continuously perfused with PBS pH 6.2 (NaCl: 8 g·L^−1, KCl: 0.19 g·L^−1, Na2HPO4.2H2O: 0.43 g·L^−1, KH2PO4: 0.97 g·L^−1) at a flow rate of 7.0 ml·h^−1. Unless described elsewhere, the following protocol for the iontophoresis experiments was used: 6 hours of passive diffusion, followed by 9 hours of iontophoresis with a current density of 500 μA·cm^−2 and 5 hours of passive diffusion. Samples were collected every hour with an automatic fraction collector (ISCORetriever IV, Beun De Ronde B V, Abcoude, The Netherlands). The specific conditions of the individual transport studies are described below.
Prior to and at the end of a transport study the pH of donor and acceptor compartment was measured. All samples of the iontophoretic transport studies were analyzed by RP-HPLC using a Superspher® 60 RP-select B, 75 mm-4 mm column (Merck KGaA, Darmstadt, Germany). Rotigotine was detected using a scanning fluorescence detector (Waters™ 474, Millipore, Milford, Mass., USA) at excitation and emission wavelengths of 276 and 302 nm. Acetaminophen was detected using a UV detector (Dual λ Absorbance Detector 2487, Waters, Milford, USA) at a wavelength of 254 nm. Filtered and degassed mobile phase contained 60% H2O (v/v), 40% ACN (v/v) and 0.05% methanesulfonic acid (v/v). The injection volume was 50 μL and the flow rate was set to 1.0 mL·min^−1.
To calculate the steady state flux during passive and iontophoretic transport, the cumulative flux of the transport was plotted as a function of time. The steady state flux was estimated from the linear part of the slope of this plot according to the permeation lag-time method^7. All data are presented as mean±standard deviation (s.d.). When a statistical analysis was performed comparing only 2 groups, a Students t-test was used. When 3 or more groups were compared, a 1-way ANOVA statistical analysis was executed. If the overall p-value was less than 0.05, a bonferonni post-test was applied to compare different groups. For all statistical analysis a significance level of p<0.05 was used. […]

[5] = Maximum (saturation) solubility in 10 mM citric buffer, HPLC assay; assay type: physicochemical; details: for solubility at 48 h: 10 mM citric buffer, thermodynamic from solid
Protocol: In order to compare the maximum solubility of pharmaceutically acceptable salts of rotigotine, e.g. rotigotine.H3PO4, with rotigotine.HCl, the solubility studies of rotigotine.salts were carried out as described by Nugroho et al. (Pharm. Res. 21 (2004), 844-855), which is incorporated herein by reference, who determined the solubility of rotigotine.HCl. Briefly, rotigotine.salt was solubilized in 10 mM citric buffer at pH 4, 5 and 6 with and without the presence of NaCl (at room temperature). Subsequent adjustment of pH in each test tube was performed by alternating adding small quantities of 1M NaOH under continuous shaking and subsequent pH measurements, until the pH of each solution had stabilized at the original buffer value. Each solution was shaken for an additional 48 hours, after which each solution was centrifuged and filtered. The concentration in each solution was determined by HPLC. Room temperature or ambient as used in the present application is to be understood to apply to a range from 18° C. to 25° C., preferred is about 20° C.
The maximum solubilities of rotigotine hydrochloride (abbreviated as Ro.HCl) and rotigotine hydrophosphate (abbreviated as rotigotine.H3PO4 or Ro.H3PO4) have been investigated as a function of pH in a number of solvents (table.1). Ro.H3PO4 was dissolved in the indicated buffer upon which the pH of the formed solution was adjusted to the target value by addition of sodium hydroxide solution. […] The drug was assayed by HPLC analysis in the filtered solution.
• Column: Merck Superspher 60 RP select B, length: 7.5 cm, column internal diameter: 4 mm, particle size: 5 μm • Mobile phase: 60% (v/v) water, 40% (v/v) acetonitrile 0.05% (v/v) methanesulfonic acid • Flow: 1.0 ml/min • Injection volume: collected fractions: 50 μl, diluted donor solutions: 4 μl • Column temperature: ambient • Detection: fluorescence, λex=276 nm, λem=302 nm

[6] = passive delivery, patch size 10 cm^2, estimated to deliver 2 mg in 24 h; cited from earlier work

Compound: CCCN(CCc1cccs1)[C@H]1CCc2c(O)cccc2C1 [rotigotine.HCl, rotigotine hydrochloride]
effect of addition of NaCl on solubility ([1]; 68 mM NaCl, results by Nugroho): reduced tremendously
Solubility ([1]; pH 4, 68 mM NaCl): 6.75 µmol/mL
Solubility ([1]; pH 4, no NaCl): 24.39^a,b μmol/ml
Solubility ([1]; pH 5, 68 mM NaCl): 6.35 µmol/mL
maximum solubility ([1]; pH 5, in the presence of 0.07 molar NaCl, previous attempts): 6.3 mM
Solubility ([1]; pH 5, no NaCl, hydrochloride): 22.4 µmol/mL
Solubility ([1]; pH 5, no NaCl, listed as Rotigotine•HCl, hydrochloride): 22.45^a,b μmol/ml
Solubility ([1]; pH 6, 68 mM NaCl): 6.52 µmol/mL
Solubility ([1]; pH 6, no NaCl): 15.87^b μmol/ml
average drug plasma levels [2]: around 0.15 ng/mL
maximum iontophoretic flux [3]: 80.2±14.4 nmol·cm^−2·h^−1
transport number [3]: 0.4%

steady state flux ± s.d., passive stage ([4]; human, 6 h, 1.24 mg/ml, pH 6): 4.1 ± 1.9 μg/cm^2/h
steady state flux ± s.d., passive stage ([4]; human, 6 h, 1.28 mg/ml, pH 5): 0.5 ± 0.2 μg/cm^2/h
steady state flux ± s.d., passive stage ([4]; human, 6 h, 1.42 mg/ml, pH 6): 3.2 ± 0.2 μg/cm^2/h
steady state flux ± s.d., passive stage ([4]; human, 6 h, 1.46 mg/ml, pH 5): 0.9 ± 0.3 μg/cm^2/h
steady state flux ± s.d., passive stage ([4]; human, 6 h, 3.11 mg/ml, pH 5): 1.0 ± 0.1 μg/cm^2/h
steady state flux ± s.d., passive stage ([4]; human, 6 h, 4.13 mg/ml, pH 6): 9.3 ± 0.9 μg/cm^2/h
steady state flux ± s.d., passive stage ([4]; human, 6 h, 4.3 mg/ml, pH 6): 12.3 ± 0.9 μg/cm^2/h
steady state flux ± s.d., passive stage ([4]; human, 6 h, 6.95 mg/ml, pH 5): 2.3 ± 0.5 μg/cm^2/h
steady state flux ± s.d., passive stage ([4]; human, 6 h, 9.88 mg/ml, pH 5.5): 7.7 ± 0.5 μg/cm^2/h
steady state flux ± s.d., passive stage ([4]; human, 6 h, 15.09 mg/ml, pH 5): 3.6 ± 0.5 μg/cm^2/h
Flux ([4]; human, 6 h, 31.3 mM, pH 5.5): 24.4±1.9 nmol·cm^−2·h^−1
maximum passive flux close to saturation in the donor phase ([4]; human, 6 h, pH 5): 10.8±1.9 nmol·cm^−2·h^−1
maximum passive flux close to saturation in the donor phase ([4]; human, 6 h, pH 6): 24.9 nmol·cm^−2·h^−1
steady state flux ± s.d., iontophoresis stage ([4]; human, 1.24 mg/ml, pH 6): 26.4 ± 1.3 μg/cm^2/h
steady state flux ± s.d., iontophoresis stage ([4]; human, 1.28 mg/ml, pH 5): 20.0 ± 4.9 μg/cm^2/h
Mean steady state flux ± sd ([4]; human, 1.4 mg/ml, pH 5): 22.1 ± 2.5 μg/cm^2/h
steady state flux ± s.d., iontophoresis stage ([4]; human, 1.42 mg/ml, pH 6): 25.1 ± 3.3 μg/cm^2/h
steady state flux ± s.d., iontophoresis stage ([4]; human, 1.46 mg/ml, pH 5): 22.1 ± 2.5 μg/cm^2/h
Mean steady state flux ± sd ([4]; human, 3 mg/ml, pH 5): 26.0 ± 2.1 μg/cm^2/h
steady state flux ± s.d., iontophoresis stage ([4]; human, 3.11 mg/ml, pH 5): 26.0 ± 2.1 μg/cm^2/h
steady state flux ± s.d., iontophoresis stage ([4]; human, 4.13 mg/ml, pH 6): 43.0 ± 2.6 μg/cm^2/h
steady state flux ± s.d., iontophoresis stage ([4]; human, 4.3 mg/ml, pH 6): 47.1 ± 1.8 μg/cm^2/h
steady state flux ± s.d., iontophoresis stage ([4]; human, 6.95 mg/ml, pH 5): 33.7 ± 4.7 μg/cm^2/h
steady state flux ± s.d., iontophoresis stage ([4]; human, 9.88 mg/ml, pH 5.5): 47.9 ± 3.1 μg/cm^2/h
steady state flux ± s.d., iontophoresis stage ([4]; human, 15.09 mg/ml, pH 5): 41.5 ± 3.4 μg/cm^2/h
decrease in steady state flux resulting from the decrease in donor concentration ([4]; human, 24 h, pH 5): 10%
increase in maximum flux compared to rotigotine.HCl ([4]; human, pH 5): 170%
maximum iontophoretic flux ([4]; human, pH 5): 135.8±12.5 nmol·cm^−2·h^−1
solubility at 48 h ([5]; aqueous buffer, pH range of about 4 to 5.5, read-out: water solubility): 34 to 83 mM
solubility at 48 h ([5]; pH 4, aqueous buffer, pH 4, 68 mM NaCl, n = 2-3, read-out: Solubility): 80.1 mM
solubility at 48 h ([5]; pH 4, aqueous buffer, pH 4, no NaCl, n = 2-3, read-out: Solubility): 83.5 mM
solubility at 48 h ([5]; pH 5, aqueous buffer, pH 5, 68 mM NaCl, n = 2-3, read-out: Solubility): 43 mM
solubility at 48 h ([5]; pH 5, aqueous buffer, pH 5, no NaCl, n = 2-3, read-out: Solubility): 41.9 mM
solubility at 48 h ([5]; pH 6, aqueous buffer, pH 6, 68 mM NaCl, n = 2-3, read-out: Solubility): 14.4 mM
solubility at 48 h ([5]; pH 6, aqueous buffer, pH 6, no NaCl, n = 2-3, read-out: Solubility): 15.7 mM
solubility fold higher compared to rotigotine-HCl ([5]; pH 4): 12 fold
solubility fold higher compared to rotigotine-HCl ([5]; pH 5): 7 fold
solubility fold higher compared to rotigotine-HCl ([5]; pH 6): 2 fold
effect of addition of NaCl on solubility ([5]; selected pH values 4, 5, 6, 68 mM NaCl, 2-way ANOVA p>0.05): did not affect significantly
Compound: CCCN(CCc1cccs1)[C@H]1CCc2c(O)cccc2C1.O=P(O)(O)O [rotigotine.H3PO4, rotigotine dihydrogen phosphate]
time to reach steady state flux after current application ([4]; citric buffer pH 5, FIG. 3): within four hours
time to reach steady state of passive transport ([4]; no current, prior to iontophoresis): ≤ 6 h
time to reach steady state flux after current application ([4]; pH 5.5, 31.3 mM, 68 mM NaCl, stepwise increase of current density): ≤ 6 h

Compound: CCCN(CCc1cccs1)[C@H]1CCc2c(O)cccc2C1 [rotigotine, (−)-5,6,7,8-tetrahydro-6-[propyl-[2-(2-thienyl)ethyl]-amino]-1-naphthalenol]
maximum plasma concentration (Cmax) [6]: 0.215 ng/mL
time of maximum plasma concentration [6]: 16 h
